Test results published in article PMC5853558, “De novo identification of lipid II binding lipopeptides with antibacterial activity against vancomycin-resistant bacteria” (Chemical Science, 2017).
In brackets after ≈: the same amount, converted by molar mass. *1 amine or outer side, *2 acyl side, *3 side chain or, on linkers, in order; H or OH if unused. Where a SMILES comes first, the peptide text is derived from it. Bridges are numbered along the chain shown (N, C = ends). [ ]: non-standard residue; d: D form. The star is where a group is joined. TBMB = c1c(C[*:1])cc(C[*:3])cc1C[*:2]; NHDecyl = CCCCCCCCCCN*

How the values were obtained:
M. luteus (NCTC2665) = experiment: microbe, parasite or virus in culture; assay type: cell-based, Micrococcus luteus
How it was run: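 Exponential-phase bacteria (OD600 0.5) were diluted to 1 x 10^6 CFU/ml and added in equal volume to twofold peptide dilutions in TSB. Highest final levels were 512 µg/ml for peptides and 64 µg/ml for lipidated peptides, each with 2% DMSO. Plates shook at 250 rpm at the organism's preferred temperature.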

lipid II = experiment: Lipid II antagonization assay; assay type: cell-based, M. luteus; set-up: key to Result with antagonist Lipid II: +: antagonization of antibiotic activity; -: no antagonization of antibiotic activity
Experimental: (§1) To assess the role of lipid II in the mode of action of the lipopeptides a lipid II antagonization assay was employed.[18],[33] This assay was performed by premixing P8-D-C10 or the optimized P8-D-(S6R, R15A)-C10 with an excess of lipid II prior to addition of a live culture of M. luteus. […] To probe the stereochemical aspects of lipid II recognition by the optimized P8-D-(S6R, R15A)-C10 lipopeptide we also prepared and tested the corresponding enantiomeric L-peptide species P8-L-(S6R, R15A)-C10. […] Given that lipid II is a chiral biomolecule we had expected the enantiomeric lipopeptides to have different activities based on the assumption that they would interact differently with lipid II. To further investigate this phenomenon we employed the same lipid II antagonization assay described above. […] To explain this observation we hypothesize that the two enantiomeric peptides interact primarily with the pyrophosphate moiety of lipid II and are therefore less influenced by the chiral elements present elsewhere in the lipid II molecule. The pyrophosphate group is known to be a binding site for many natural occurring lipid II binding peptides.[15],[16] […] To test the hypothesis that both the P8-D-(S6R, R15A)-C10 and P8-L-(S6R, R15A)-C10 lipopeptides interact with the pyrophosphate moiety we performed an additional antagonizaiton experiment using C55-PP.
(§2) Section 4 Biological and biochemical experiments
(§3) 4.1 Minimum inhibitory concentration assay
(§4) MIC values were determined by using the broth microdilution method. Peptides were dissolved first in DMSO and diluted with broth so that the final peptide concentration was 1024 µg/ml and the DMSO concentration was 4%. Peptide serial dilutions were made in TSB in a polypropylene 96-wells plate using 50 µl volumes. An overnight culture of the organism of interest was diluted to and OD600 of 0.01 and grown until they reach 0.5. The culture was then diluted to 1 x 10^6 CFU/ml and 50 µl of this suspension was added to each well. The highest concentrations were then 512 µg/ml peptide and 2% DMSO. The plates were incubated at the preferred growth temperature of the organism that was used and 250 rpm. […] When […]
(§5) determining the MICs of the lipidated peptides, the lipopeptides were first dissolved in DMSO and diluted with TSB so that the peptide concentration was 128 µg/ml and the DMSO concentration was 4%. After inoculation the highest peptide concentration evaluated was 64 µg/ml and the DMSO concentration was 2%. A DMSO control was tested for each strain to ensure the DMSO did not affect the growth of the particular strain. […]
(§6) 4.4 Antagonization assays
(§7) Stock solutions of each peptide antibiotic were prepared so that their final concentration in the assay would be 4x MIC. Peptides were transferred to a 96 wells plate and lipid II or C15-P (farnesyl-phosphate) was added at 4 molar equivalents in a final volume of 50 µl. Each well received 50 µl of bacterial suspension (M. luteus) at 1 x 10^6 CFU/ml and the plates were incubated for 16 h at 250 rpm and 30°C. Growth was observed visually (see supplemental table S10 for results).

S. pyogenes (5448) = experiment: microbe, parasite or virus in culture; assay type: cell-based
Experimental: as §2, §3, §4, §5

S. epidermidis (1587) = experiment: microbe, parasite or virus in culture; assay type: cell-based
Experimental: as §2, §3, §4, §5

B. subtilis (168) = experiment: microbe, parasite or virus in culture; assay type: cell-based
Experimental: as §2, §3, §4, §5

[1] = system: C15-P (farnesyl-phosphate); experiment: Antagonization assay with C15-P (negative control); assay type: cell-based; set-up: key: +: antagonization of antibiotic activity; -: no antagonization of antibiotic activity; conditions: Supplemental table S10, peptide at 4x MIC, 4 molar equivalents, M. luteus, 16 h at 30°C, growth observed visually
Experimental: as §2, §3, §4, §5, §6, §7
Supplemental table S10. Lipid II antagonization assay results
Result with indicated antagonista
Antibiotic compound Lipid II C55-PP C15-Pb […]
a + = antagonization of antibiotic activity; - = no antagonization of antibiotic activity; b C -P was used as a negative […]
control (C15-P is a watersoluble analogue of the lipid II precursor undecaprenol phosphate).
4.6 Scanning Electron Microscopy
E. faecium E155 was inoculated at an OD600nm of 0.05 into 300 µL of cation adjusted TSB containing P8-D-(S6R, R15A)-C10 or nisin at (both a 2x MIC) along with 1% glucose and 1%
DMSO. An untreated culture was used as control. Following overnight incubation (ca. 16 hr) bacterial cells were fixed for 15 minutes with 1% (v/v) glutaraldehyde in phosphate buffered saline (PBS) at room temperature on poly-L-lysine covered glass slides (12 mm diameter). […]

C55-PP = experiment: Antagonization assay with C55-PP; assay type: cell-based, M. luteus; set-up: key to Result with antagonist C55-PP: +: antagonization of antibiotic activity; -: no antagonization of antibiotic activity; conditions: Supplemental table S10; peptide at 4x MIC, M. luteus, 16 h at 30°C, growth observed visually
Experimental: as §1, §2, §3, §4, §5, §6, §7

E. faecium (E980) = experiment: microbe, parasite or virus in culture; assay type: cell-based, Enterococcus faecium
Experimental: as §2, §3, §4, §5

E. faecium (VRE7391) = experiment: microbe, parasite or virus in culture; assay type: cell-based, Enterococcus faecium
Experimental: as §2, §3, §4, §5

E. faecium (VRE2297) = experiment: microbe, parasite or virus in culture; assay type: cell-based, Enterococcus faecium
Experimental: as §2, §3, §4, §5

E. faecium (VRE155) = experiment: microbe, parasite or virus in culture; assay type: cell-based, Enterococcus faecium
Experimental: as §2, §3, §4, §5

E. faecium (VRE0321) = experiment: microbe, parasite or virus in culture; assay type: cell-based, Enterococcus faecium
Experimental: as §2, §3, §4, §5

Sheep blood = experiment: Hemolysis assay; assay type: cell-based; conditions: for Hemolysis: Supplemental table S9, 1 hour incubation at 37 °C, lipopeptides at 32 µg/mL
Experimental: Sheep blood in Alsever’s solution (2 mL) was diluted with PBS (13 mL) and centrifuged (2,000 RPM, 5 min). The supernatant was discarded and the cells were washed with another 13 mL of PBS and centrifuged. Washing was continued until the supernatant was clear. After the final wash the supernatant was discarded and the packed cells were kept on ice. Serial dilutions of each peptide were made in 50 µl PBS with the highest tested concentration 64 µg/mL in PBS, 2%
DMSO. The packed cells (150 µL) were suspended in PBS (10 mL) and 50 µL of this suspension was added to each well. A well plate column containing 0.1% triton x-100 in DI water was used as the 100% lysis control and a second column with PBS (with 2% DMSO) served as the 0% lysis control. After incubation at 37°C for 1h the plates were centrifuged (2,000 RPM, 5 min) and 25 µL of the supernatant was added to 100 µL DI water in a flat-bottom 96-wells plate (polystyrene). […]

[2] = Supplemental table S7, P8 with varying lipids, broth microdilution
[3] = Supplemental table S9, MIC values of Table 2 expressed in µM
[4] = Table 2, broth microdilution in TSB, 16 h, read visually, highest tested 64 µg/ml
[5] = Supplemental table S9, vancomycin-resistant isolate, MIC values of Table 2 expressed in µM
[6] = Table 2, vancomycin-resistant isolate from hospitalized patients, broth microdilution in TSB, 16 h, highest tested 64 µg/ml

## CCCCCCCCCCNC(=O)CNC(=O)[C@H]1CSCc2cc3cc(c2)CSC[C@@H](NC(=O)[C@@H](CC(C)C)NC(=O)[C@@H](CC(C)C)NC(=O)[C@@H](CO)NC(=O)[C@@H](CCC(N)=O)NC(=O)[C@@H](CC(C)C)NC(=O)[C@@H](CC(C)C)NC(=O)[C@H](NC(=O)[C@@H](C)N)CSC3)C(=O)N2CCC[C@@H]2C(=O)N[C@H](Cc2ccc(O)cc2)C(=O)N[C@H](CO)C(=O)N[C@H]([C@H](C)O)C(=O)N[C@H](Cc2c[nH]cn2)C(=O)N[C@H](CCCNC(=N)N)C(=O)N1 [Peptide P8-D-C10] (H-[dA][dC][dL][dL][dQ][dS][dL][dL][dC][dP][dY][dS][dT][dH][dR][dC]G-NHDecyl; linker 2-9-16 via TBMB)
M. luteus (NCTC2665); [2]
  MIC M. luteus: 4 µg/mL (≈ 1.89 µM)
M. luteus (NCTC2665); [3]
  MIC M. luteus (NCTC2665): 3.8 µM (≈ 8.05 µg/mL)
Lipid II; Supplemental table S10, peptide at 4x MIC, antagonist at 4 molar equivalents, M. luteus 1 x 10^6 CFU/ml, 16 h at 30°C, growth observed visually
  Result with antagonist Lipid II: +
Lipid II; premixed with an excess of lipid II before addition of a live culture of M. luteus
  Effect of pre-incubation with lipid II on antibacterial activity: antagonization of antibacterial activity
S. pyogenes (5448); [3]
  MIC S. pyogenes (5448): 7.6 µM (≈ 16.1 µg/mL)
S. pyogenes (5448); [4]
  MIC S. pyogenes (5448): 8 μg mL^–1
S. epidermidis (1587); [4]
  MIC S. epidermidis (1587): 64 μg mL^–1
B. subtilis (168); Supplemental table S6, lipidated phage display hits, n.a. = not active, highest tested conc 64 µg/ml
  MIC B. subtilis: 8 to 16 µg/mL
B. subtilis (168); [4]
  MIC B. subtilis (168): 8–16 μg mL^–1
[1]
  Result with antagonist C15-P: -
C55-PP
  Result with antagonist C55-PP: +
E. faecium (E980); [3]
  MIC E. faecium (E980): 30.3 µM (≈ 64.2 µg/mL)
E. faecium (E980); [4]
  MIC E. faecium (E980): 32 μg mL^–1
E. faecium (VRE7391); [5]
  MIC E. faecium (VRE7391): 7.6 µM (≈ 16.1 µg/mL)
E. faecium (VRE7391); [6]
  MIC E. faecium (VRE7391): 8 μg mL^–1
E. faecium (VRE2297); [6]
  MIC E. faecium (VRE2297): 8–16 μg mL^–1
E. faecium (VRE155); [2]
  MIC VRE E155: 4 µg/mL (≈ 1.89 µM)
E. faecium (VRE155); [5]
  MIC E. faecium (VRE155): 3.8 µM (≈ 8.05 µg/mL)
E. faecium (VRE0321); [5]
  MIC E. faecium (VRE0321): 3.8 µM (≈ 8.05 µg/mL)
E. faecium (VRE0321); [6]
  MIC E. faecium (VRE0321): 4 μg mL^–1
Sheep blood; Supplemental table S7, sheep blood cells in PBS, 32 µg/ml, 1 h at 37°C, absorption at 414 nm
  Hemolysis 32 µg/ml (after 1 h): 6%
Sheep blood
  Hemolysis: 6%

## CCCCCCCCCCNC(=O)CNC(=O)[C@H]1CSCc2cc3cc(c2)CSC[C@@H](NC(=O)[C@@H](CC(C)C)NC(=O)[C@@H](CC(C)C)NC(=O)[C@@H](CO)NC(=O)[C@@H](CCC(N)=O)NC(=O)[C@@H](CC(C)C)NC(=O)[C@@H](CC(C)C)NC(=O)[C@H](NC(=O)[C@@H](C)N)CSC3)C(=O)N[C@H](CCCNC(=N)N)C(=O)N[C@H](Cc2ccc(O)cc2)C(=O)N[C@H](CO)C(=O)N[C@H]([C@H](C)O)C(=O)N[C@H](Cc2c[nH]cn2)C(=O)N[C@H](C)C(=O)N1 [P8-D-(P10R, R15A)-C10] (H-[dA][dC][dL][dL][dQ][dS][dL][dL][dC][dR][dY][dS][dT][dH][dA][dC]G-NHDecyl; linker 2-9-16 via TBMB; N-terminus assumed)
M. luteus (NCTC2665); [3]
  MIC M. luteus (NCTC2665): 3.8 µM (≈ 7.95 µg/mL)
M. luteus (NCTC2665); Table 2, broth microdilution in TSB, 16 h, read visually, highest tested 64 µg/ml, 2% DMSO
  MIC M. luteus (NCTC2665): 4 μg mL^–1
S. pyogenes (5448); [3]
  MIC S. pyogenes (5448): 15.3 µM (≈ 32 µg/mL)
S. pyogenes (5448); [4]
  MIC S. pyogenes (5448): 16 μg mL^–1
S. epidermidis (1587); [3]
  MIC S. epidermidis (1587): > 61. 2 µM
S. epidermidis (1587); [4]
  MIC S. epidermidis (1587): >64 μg mL^–1
B. subtilis (168); [3]
  MIC B. subtilis (168): 7.7 µM (≈ 16.1 µg/mL)
B. subtilis (168); [4]
  MIC B. subtilis (168): 8 μg mL^–1
E. faecium (E980); [3]
  MIC E. faecium (E980): 30.6 µM (≈ 64 µg/mL)
E. faecium (E980); [4]
  MIC E. faecium (E980): 32 μg mL^–1
E. faecium (VRE7391); [5]
  MIC E. faecium (VRE7391): 15.3 µM (≈ 32 µg/mL)
E. faecium (VRE7391); [6]
  MIC E. faecium (VRE7391): 16 μg mL^–1
E. faecium (VRE2297); [5]
  MIC E. faecium (VRE2297): 30.6 µM (≈ 64 µg/mL)
E. faecium (VRE2297); [6]
  MIC E. faecium (VRE2297): 32 μg mL^–1
E. faecium (VRE155); [5]
  MIC E. faecium (VRE155): 7.7 µM (≈ 16.1 µg/mL)
E. faecium (VRE155); [6]
  MIC E. faecium (VRE155): 8 μg mL^–1
E. faecium (VRE0321); [5]
  MIC E. faecium (VRE0321): 15.3 µM (≈ 32 µg/mL)
E. faecium (VRE0321); [6]
  MIC E. faecium (VRE0321): 16 μg mL^–1
Sheep blood
  Hemolysis: 0%
